{"source": "ChEMBL document CHEMBL3400121", "about": "“Design and synthesis of novel 1,2,3-triazole-pyrimidine-urea hybrids as potential anticancer agents” (Bioorg Med Chem Lett, 2015)", "key": {"MGC-803 [1]": {"system": "MGC-803", "experiment": "Induction of apoptosis in human MGC803 cells assessed as early apoptotic cells at 2 uM after 12 to 24 hrs using annexin V-FITC/PI double staining by flow cytometry (reference value: 1.6 %)", "format": "functional"}, "MCF7": {"system": "MCF7", "experiment": "Anticancer activity against human MCF7 cells assessed as inhibition of proliferation after 72 hrs by MTT assay", "format": "functional, cell-based", "details": "MCF7, 72 h"}, "MGC-803 [2]": {"system": "MGC-803", "experiment": "Induction of apoptosis in human MGC803 cells after 12 to 24 hrs using annexin V-FITC/PI double staining by flow cytometry", "format": "functional, cell-based"}, "MGC-803 [3]": {"system": "MGC-803", "experiment": "Induction of apoptosis in human MGC803 cells assessed as late apoptotic cells at 2 uM after 12 to 24 hrs using annexin V-FITC/PI double staining by flow cytometry (reference value: 1.2 %)", "format": "functional"}, "MGC-803 [4]": {"system": "MGC-803", "experiment": "Induction of apoptosis in human MGC803 cells assessed as formation of apoptotic bodies at 1 to 4 uM after 24 hrs using Hoechst 33258 staining by fluorescence microscopy", "format": "functional, cell-based"}, "MGC-803 [5]": {"system": "MGC-803", "experiment": "Induction of apoptosis in human MGC803 cells assessed as early apoptotic cells at 4 uM after 12 to 24 hrs using annexin V-FITC/PI double staining by flow cytometry (reference value: 1.6 %)", "format": "functional"}, "[6]": {"experiment": "Anticancer activity against mouse B16F10 cells assessed as inhibition of proliferation after 72 hrs by MTT assay", "format": "functional, cell-based", "details": "B16-F10, 72 h"}, "MGC-803 [7]": {"system": "MGC-803", "experiment": "Induction of apoptosis in human MGC803 cells assessed as viable cells at 1 uM after 12 to 24 hrs using annexin V-FITC/PI double staining by flow cytometry (reference value: 90.4 %)", "format": "functional", "details": "read-out: Activity"}, "MGC-803 [8]": {"system": "MGC-803", "experiment": "Induction of apoptosis in human MGC803 cells assessed as decrease in pro-caspase 3 level at 2 to 4 uM after 48 hrs by Western blot analysis", "format": "functional, cell-based"}, "MGC-803 [9]": {"system": "MGC-803", "experiment": "Induction of apoptosis in human MGC803 cells assessed as viable cells at 4 uM after 12 to 24 hrs using annexin V-FITC/PI double staining by flow cytometry (reference value: 90.4 %)", "format": "functional", "details": "read-out: Activity"}, "MGC-803 [10]": {"system": "MGC-803", "experiment": "Induction of apoptosis in human MGC803 cells assessed as necrotic cells at 1 uM after 12 to 24 hrs using annexin V-FITC/PI double staining by flow cytometry (reference value: 6.8 %)", "format": "functional"}, "MGC-803 [11]": {"system": "MGC-803", "experiment": "Induction of apoptosis in human MGC803 cells assessed as necrotic cells at 2 uM after 12 to 24 hrs using annexin V-FITC/PI double staining by flow cytometry (reference value: 6.8 %)", "format": "functional"}, "MGC-803 [12]": {"system": "MGC-803", "experiment": "Induction of apoptosis in human MGC803 cells assessed as viable cells at 2 uM after 12 to 24 hrs using annexin V-FITC/PI double staining by flow cytometry (reference value: 90.4 %)", "format": "functional", "details": "read-out: Activity"}, "MGC-803 [13]": {"system": "MGC-803", "experiment": "Induction of apoptosis in human MGC803 cells assessed as total apoptotic cells at 2 uM after 12 to 24 hrs using annexin V-FITC/PI double staining by flow cytometry (reference value: 2.8 %)", "format": "functional"}, "MGC-803 [14]": {"system": "MGC-803", "experiment": "Induction of apoptosis in human MGC803 cells assessed as increase in p53 level at 2 to 4 uM after 48 hrs by Western blot analysis", "format": "functional, cell-based"}, "MGC-803 [15]": {"system": "MGC-803", "experiment": "Induction of apoptosis in human MGC803 cells assessed as chromatin shrinkage at 1 to 4 uM after 24 hrs using Hoechst 33258 staining by fluorescence microscopy", "format": "functional, cell-based"}, "MGC-803 [16]": {"system": "MGC-803", "experiment": "Anticancer activity against human MGC803 cells assessed as inhibition of proliferation after 72 hrs by MTT assay", "format": "functional, cell-based", "details": "MGC-803, 72 h"}, "MGC-803 [17]": {"system": "MGC-803", "experiment": "Induction of apoptosis in human MGC803 cells assessed as late apoptotic cells at 1 uM after 12 to 24 hrs using annexin V-FITC/PI double staining by flow cytometry (reference value: 1.2 %)", "format": "functional"}, "MGC-803 [18]": {"system": "MGC-803", "experiment": "Induction of apoptosis in human MGC803 cells assessed as necrotic cells at 4 uM after 12 to 24 hrs using annexin V-FITC/PI double staining by flow cytometry (reference value: 6.8 %)", "format": "functional"}, "MGC-803 [19]": {"system": "MGC-803", "experiment": "Induction of apoptosis in human MGC803 cells assessed as cell rounding at 1 to 4 uM after 24 hrs using Hoechst 33258 staining by fluorescence microscopy", "format": "functional, cell-based"}, "MGC-803 [20]": {"system": "MGC-803", "experiment": "Induction of apoptosis in human MGC803 cells assessed as total apoptotic cells at 4 uM after 12 to 24 hrs using annexin V-FITC/PI double staining by flow cytometry (reference value: 2.8 %)", "format": "functional"}, "MGC-803 [21]": {"system": "MGC-803", "experiment": "Induction of apoptosis in human MGC803 cells assessed as total apoptotic cells at 1 uM after 12 to 24 hrs using annexin V-FITC/PI double staining by flow cytometry (reference value: 2.8 %)", "format": "functional"}, "[22]": {"experiment": "Cytotoxicity against human GES-1 cells assessed as inhibition of proliferation after 72 hrs by MTT assay", "format": "cell-based", "details": "GES1, 72 h"}, "MGC-803 [23]": {"system": "MGC-803", "experiment": "Induction of apoptosis in human MGC803 cells assessed as late apoptotic cells at 4 uM after 12 to 24 hrs using annexin V-FITC/PI double staining by flow cytometry (reference value: 1.2 %)", "format": "functional"}, "[24]": {"experiment": "Anticancer activity against human EC109 cells assessed as inhibition of proliferation after 72 hrs by MTT assay", "format": "functional, cell-based", "details": "ECa-109, 72 h"}, "MGC-803 [25]": {"system": "MGC-803", "experiment": "Induction of apoptosis in human MGC803 cells assessed as early apoptotic cells at 1 uM after 12 to 24 hrs using annexin V-FITC/PI double staining by flow cytometry (reference value: 1.6 %)", "format": "functional"}}, "note": "The source made the active and inactive calls. No cut-off for these calls is given here."}
{"molecule": "COc1cc(-c2nc(SCc3cn(CC(=O)NC(=O)Nc4ccccn4)nn3)nc(Nc3ccc(C)cc3)c2C#N)cc(OC)c1OC", "values": [{"measurement": "Activity", "setting": "MGC-803 [1]", "value": 26.1, "unit": "%"}, {"measurement": "IC50", "setting": "MCF7", "value": 21, "unit": "µM"}, {"measurement": "Activity", "setting": "MGC-803 [2]", "value": "Dose-dependent effect"}, {"measurement": "Activity", "setting": "MGC-803 [3]", "value": 6.4, "unit": "%"}, {"measurement": "Activity", "setting": "MGC-803 [4]", "value": "Active"}, {"measurement": "Activity", "setting": "MGC-803 [5]", "value": 52.7, "unit": "%"}, {"measurement": "IC50", "setting": "[6]", "value": 32, "unit": "nM"}, {"measurement": "viability at 1 µM", "setting": "MGC-803 [7]", "value": 80.3, "unit": "%"}, {"measurement": "Activity", "setting": "MGC-803 [8]", "value": "Active"}, {"measurement": "viability at 4 µM", "setting": "MGC-803 [9]", "value": 35.2, "unit": "%"}, {"measurement": "Activity", "setting": "MGC-803 [10]", "value": 2.5, "unit": "%"}, {"measurement": "Activity", "setting": "MGC-803 [11]", "value": 1.7, "unit": "%"}, {"measurement": "viability at 2 µM", "setting": "MGC-803 [12]", "value": 65.8, "unit": "%"}, {"measurement": "Activity", "setting": "MGC-803 [13]", "value": 32.5, "unit": "%"}, {"measurement": "Activity", "setting": "MGC-803 [14]", "value": "Active"}, {"measurement": "Activity", "setting": "MGC-803 [15]", "value": "Active"}, {"measurement": "IC50", "setting": "MGC-803 [16]", "value": 7.03, "unit": "µM"}, {"measurement": "Activity", "setting": "MGC-803 [17]", "value": 4.1, "unit": "%"}, {"measurement": "Activity", "setting": "MGC-803 [18]", "value": 1.8, "unit": "%"}, {"measurement": "Activity", "setting": "MGC-803 [19]", "value": "Active"}, {"measurement": "Activity", "setting": "MGC-803 [20]", "value": 63, "unit": "%"}, {"measurement": "Activity", "setting": "MGC-803 [21]", "value": 17.2, "unit": "%"}, {"measurement": "IC50", "setting": "[22]", "value": "> 64", "unit": "µM"}, {"measurement": "Activity", "setting": "MGC-803 [23]", "value": 10.3, "unit": "%"}, {"measurement": "IC50", "setting": "[24]", "value": 21.3, "unit": "µM"}, {"measurement": "Activity", "setting": "MGC-803 [25]", "value": 13.1, "unit": "%"}]}
